According to patent US20250180567A1, “METHOD FOR MEASURING GL[…] ANTIGEN PROTEIN OF HBV” (RCMG Inc., priority 2021, published 2025):

Legend:
glycosylated S-HBs = experiment: lectin-antibody combination ELISA using sera from chronic hepatitis B patients; assay type: binding, hepatitis B virus; conditions: actual sera from chronic hepatitis B patients; lectin combined with S-HBs antibody
Procedure: This finding means that the glycosylated chains attached to S-HBs bind to WGA, which is completely unexpected.
Sera from untreated (no treatment history with nucleic acid analogs) chronic hepatitis B patients (HBs antigen positivity persisting for 6 months or more) (n=4) were used before (0) weeks) and 48 weeks after nucleic acid analog treatment. 1) HBsAg antibody (Hyb-824, 5 μg/mL) diluted with BSA (5 μg/mL)/PBS was added to a Nunc Immobilizer Amino Plate in an amount of 0.1 mL per well, and the plate was shaken at room temperature for 2 hours to immobilize the antibody. After washing twice with PBS-T, 0.3 mL of TBS was added per well and the wells were allowed to stand at 4° C. overnight for blocking. 2) After washing the wells with PBS-T, patient samples (before treatment and 48 weeks after treatment) were diluted 1/20 and 1/100 with Sample dilution buffer (3% BSA/TBS-T), and 0.1 mL was added per well, and the plate was shaken at room temperature for 1.5 hours to capture the antigen onto the antibody-immobilized plate. […] After the reaction was stopped, the absorbance at 450 nm was immediately measured by a plate reader.

[1] = tested on: glycosylated recombinant HBs antigen protein; experiment: sandwich ELISA of immobilized HBs antibody (HBsAgGi) and biotinylated lectins; assay type: binding, hepatitis B virus; conditions: FIG. 1; for detection of N-glycosylated S-HBs as a specific positive signal (ELISA absorbance): lectin-biotin 1 μg/mL, absorbance at 450 nm
Procedure: A purified antibody against HBs antigen protein (HBsAgGi) was immobilized on a plate, and a sandwich ELISA system was constructed to examine the optimal lectin to be used for detecting the capturedHBs antigen.
1) HBsAgGi (5 μg/mL) diluted with BSA (5 μg/mL)/PBS was added to a Nunc Immobilizer Amino Plate at a volume of 0.1 mL per well, and the plate was shaken at room temperature for 4 hours to immobilize the antibody. After washing twice with PBS-T, 0.3 mL of TBS was added per well and the plate was allowed to stand overnight at 4° C. for blocking. 2) After washing with PBS-T, glycosylated recombinant HBs antigen protein was diluted to 400 ng/ml with Sample dilution buffer (3% BSA/TBS-T), 0.1 mL thereof was added per well, and the plate was shaken at room temperature for 2.5 hours to be captured the antigen on the antibody solid-phased plate. In order to confirm the effect of the serum, recombinant HBs antigen to which 5% Normal human serum (NHS) was added was also treated in the same manner. 3) After washing the wells four times with PBS-T, the wells were reacted with the following lectins diluted with PBS-T at room temperature for 2 hours by shaking.
Jacalin-biotin (1 μg/mL), MAL II-biotin (1 μg/mL), RCA120-biotin (1 μg/mL), SNA-biotin (1 μg/mL), SSA-biotin (1 μg/mL), WGA-biotin (1 μg/mL) 4) After washing four times with PBS-T, the wells were reacted with Peroxidase-conjugated Streptavidin (1/20,000 dilution) or SSA-HRP (2 μg/mL) diluted with PBS-T at room temperature for 1 hour by shaking.
5) After washing the wells four times with PBS-T, 0.1 mL of 1Step Ultra TMB-ELISA was added per well and allowed to react for 5 min, then 50 μL of 1 mol/L sulfuric acid was added to stop the reaction. After the reaction was stopped, the absorbance at 450 nm was immediately measured by a plate reader.

Substance | specificity of detection of glycosylated S-HBs in patient sera (glycosylated S-HBs) | detection of N-glycosylated S-HBs as a specific positive signal (ELISA absorbance) [1] | effect of NHS added to the sample on lectin detection ([1]; 5% Normal human serum (NHS) added to recombinant HBs antigen) | reaction of the lectin with the solid-phased antibody ([1]; antibody HBsAgGi immobilized on plate)
Salvia sclarea agglutinin [SSA lectin] | unexpectedly low | could not detect | – | –
wheat germ agglutinin [WGA lectin] | could specifically detect | very clear detection | not affected | did not react
